# Literature values, collected in US11426367B2, “Methods of treating substance abuse” (Perception Neuroscience, Inc., priority 2018, dated 2022).
# System: Chronic pain patients
# Details: chronic pain patients after i.v. R,S-ketamine; Persson et al., 1998; cited from earlier work
smiles,measurement,value
CN[C@]1(c2ccccc2Cl)CCCCC1=O [S(+)-ketamine],Plasma levels of S analyzed,Plasma levels of S analyzed (50-400 ng/ml)
